According to patent US20240285670A1, “THERAPEUTIC TREATMENT OF TUMORS BY BLOCKING THE HEME SYNTHESIS-EXPORT AXIS” (Università degli Studi di Torino, priority 2021, published 2024):

What was measured:
FLVCR1a = experiment: qRT-PCR analysis of FLVCR1a expression in SHSY5Y cells; type: cell-based, human; conditions: 5 mM ALA for 15 hours vs non-treated
Description: (A) Heme content in SHSY5Y cells non-treated (NT) or treated with 5 mM ALA for 15 hours. Values are expressed as pmol heme/mg protein. Data represent mean±SEM, n=3; *=P<0.05. (B, C) qRT-PCR analysis of the expression of ALAS1 (B) and FLVCR1a (C) in SHSY5Y cells non-treated (NT) or treated with 5 mM ALA for 15 hours. Transcript abundance, normalized to beta-actin mRNA expression, is expressed as a fold increase over a calibrator sample. Data represent mean±SEM, n=4. For statistical analyses, an unpaired Student's t-test was used; *p<0.05. (D) qRT-PCR analysis of the expression of ALAS1 in SKCO1 cells untreated (NT) or treated with 5 mM ALA for 24 hours. Transcript abundance, normalized to beta-actin mRNA expression, is expressed as a fold increase over a calibrator sample. Data represent mean±SEM, n=5. […] Band intensities were measured by densitometry and normalized to beta-actin expression. […] (F) Proliferation of SHSY5Y cells assessed by crystal violet staining at different time points (starting from the day after plating, named “day 0”). Treatment with 5 mM ALA occurred at “day 0” and cells were monitored until the end of the experiment without medium refresh. […] (G) SKCO1 cells viability measured by the CellTiter-Fluor Cell Viability Assay (Promega, Madison, WI USA, catalog n°G6080) at different time points, starting from the day after plating (named “day 0”), as a readout of cell proliferation. […]

C80 cells = experiment: TCA cycle flux in C80 cells; type: cell-based, human; conditions: FLVCR1a-silenced vs scramble shRNA C80 cells
Source text: TCA cycle flux is reported in the centre of the figure and expressed as pmol CO2/h/mg protein. Data represent mean±SEM, n=3. For statistical analyses, an unpaired Student's t-test was used. **=p<0.01. Moreover, TCA cycle enzymes activities are reported in boxes and expressed as mU/mg mitochondrial proteins. Data represent mean±SEM, n=3. For statistical analyses, an unpaired Student's t-test was used; *=p<0.05, ***=p<0.001. […] Results are expressed as pmol CO2/h/mg protein. Data represent mean±SEM, n=3. For statistical analyses, an unpaired Student's t-test was used; *=p<0.05, **=p<0.01.
The glucose flux through TCA cycle was measured by radiolabeling cells with 2 μCi/ml [6-^14C]-glucose (55 mCi/mmol; PerkinElmer, Waltham, MA, USA, catalog n° NEC045X). Cell suspensions were incubated for 1 hour in a closed experimental system to trap the ^14CO2 developed from [^14C]-glucose. The reaction was stopped by injecting 0.5 ml of 0.8N HClO4. The amount of glucose transformed into CO2 through the TCA cycle was calculated as described (Riganti et al., 2004) and expressed as pmoles CO2/h/mg cell proteins.

| Compound | FLVCR1a transcript levels (FLVCR1a) | TCA cycle flux (C80 cells) |
| --- | --- | --- |
| Cl.NCC(=O)CCC(=O)O [5-ALA, 5-Aminolevulinic acid hydrochloride] | reduced |  |
| FLVCR1a shRNA: shRNA specifically down-regulating FLVCR1a without targeting FLVCR1b; pLKO.1 lentiviral clone TRCN0000059599, antisense SEQ ID No.: 2 (antisense TTGCTAATGATGCTGTACTGG; sense CCAGTACAGCATCATTAGCAA) |  | Increased TCA cycle flux |
